Reference: patent US20200397808A1, “TREATMENT OF STEROID-RESISTANT DISEASE USING AN ANTHOCYANIN AND A CORTICOSTEROID” (THE CLEVELAND CLINIC FOUNDATION, priority 2017, published 2020)

Legend:
[1] = tested on: HDM-induced neutrophilic airway inflammation; experiment: HDM/CFA-induced acute neutrophilic steroid-resistant severe asthma model; assay type: in vivo, C57BL/6 mice; set-up: airway inflammation (BAL cell count, inflammatory gene expression in the lung): dose or concentration left out as unconfirmed
Experimental: FIGS. 1A and 1B provide graphs showing C3G attenuates neutrophilic airway inflammation in a HDM-induced acute asthma model. A. HDM/CFA-induced neutrophilic asthma in 8-week female C57BL/6 mice (n=8 per group). B. Shown are total and differential cell counts in BAL cell count. HDM, house dust mite. […] DEX and C3G were delivered to mice 24 h before HDM sensitization and 1 h before HDM challenge. Mice were sacrificed after HDM challenge. i.p., intraperitoneally; i.n. intranasally.
FIGS. 2A and 2B provide graphs showing Oral C3G attenuates neutrophilic airway inflammation in a HDM-induced acute asthma model. A. HDM/CFA-induced neutrophilic asthma in 8-week female C57BL/6 mice (n=5 per group). B. Shown are total and differential cell counts in BAL cell count. HDM, house dust mite. Treatment groups: Control (DMSO); Low DEX (0.3 mg/kg BW, i.p.); Low DEX+10 mg C3G (per mouse); Low DEX+20 mg C3G (per mouse); DEX and C3G were delivered to mice 24 h before HDM sensitization and 1 h before HDM challenge. Mice were sacrificed after HDM challenge.
C3G attenuates neutrophilic airway inflammation in a HDM-induced acute asthma model. House dust mite (HDM), a natural allergen to which asthmatics are often sensitized, can induce neutrophilic airway inflammation, which is often associated with steroid-resistant severe asthma. The inventors have established an HDM/CFA-induced neutrophilic severe asthma model. The ability of C3G in combination with low-dose DEX (low DEX) was evaluated in alleviating neutrophilic airway inflammation in a HDM-induced steroid-resistant severe asthma model. Eight-week WT C57BL/6 female mice were sensitized subcutaneously (s.c.) with HDM (100 μg per mouse) in Complete Freund's Adjuvant (CFA) on day 0 and subsequently challenged (i.n.) with HDM (100 μg per mouse) on day 14. BAL cell counting and tissue collection were performed after 24 h of last HDM challenge. […]

[2] = tested on: Th17-induced neutrophilic airway inflammation; experiment: Th17 cell-mediated neutrophilic asthma model; assay type: in vivo, C57BL/6 mice; details: C3G alone, 200 μg i.p./100 μg i.n per mouse
Experimental: FIGS. 3A and 3B provide graphs showing C3G attenuates neutrophilic airway inflammation in a Th17-induced asthma model. A. HDM/CFA-induced neutrophilic asthma in 8-week female C57BL/6 mice (n=5 per group). B. Shown are total and differential cell counts in BAL cell count. HDM, house dust mite. Treatment groups: Control (DMSO); Low DEX (0.3 mg/kg BW, i.p.); C3G (200 μg i.p./100 μg i.n per mouse); Low DEX/C3G. DEX and C3G were delivered to mice 1 h before HDM challenges. Mice were sacrificed after the last HDM challenge.
C3G attenuates neutrophilic airway inflammation in a Th17-induced asthma model. To further confirm the synergistic effect of DEX/C3G in IL-17A-driven asthma, the efficacy of C3G was tested in a TH17 cell-mediated neutrophilic asthma model (FIG. 3).

[3] = biological target: T1, IL-17A and IL-17ARA (IL-17A receptor subunit) interaction (Homo sapiens, UniProt Q96F46); experiment: IL-17A binding to IL-17ARA inhibition; details: read-out: IC50, inhibitory activity for IL-17A binding to IL-17ARA
T1 sequence (Q96F46 33-320 limits assumed): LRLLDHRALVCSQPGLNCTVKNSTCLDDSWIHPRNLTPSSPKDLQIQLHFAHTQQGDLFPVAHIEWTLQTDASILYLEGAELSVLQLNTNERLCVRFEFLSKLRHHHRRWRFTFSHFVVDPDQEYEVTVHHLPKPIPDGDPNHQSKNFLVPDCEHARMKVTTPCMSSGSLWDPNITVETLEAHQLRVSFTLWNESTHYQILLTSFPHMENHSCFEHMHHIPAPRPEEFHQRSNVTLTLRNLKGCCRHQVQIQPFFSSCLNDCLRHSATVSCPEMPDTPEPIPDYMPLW

OC[C@H]1O[C@@H](Oc2cc3c(O)cc(O)cc3[o+]c2-c2ccc(O)c(O)c2)[C@H](O)[C@@H](O)[C@@H]1O [C3G, Cyanidin-3-glucoside]
airway inflammation (BAL cell count, inflammatory gene expression in the lung) ([1]; C3G alone): reduced to some degree | airway inflammation (BAL cell count) ([1]; oral C3G 20 mg/mouse in the presence of low DEX, versus 10 mg/mouse): did not improve the efficacy further | airway inflammation (BAL cell count) ([1]; oral C3G by gavage 10 mg/mouse in the presence of low DEX): able to inhibit airway inflammation | neutrophilic airway inflammation (BAL cell count) [2]: alleviated the inflammation dramatically | IC50 [3]: 6.88 µM
